Paper PMC8584424, “Synthesis of Novel 2-Thiouracil-5-Sulfonamide Derivatives as Potent Inducers of Cell Cycle Arrest and CDK2A Inhibition Supported by Molecular Docking” (International Journal of Molecular Sciences, 2021)

Legend:
[1] = test system: A-2780, HT-29, MCF-7, and HepG2 cancer cell lines; assay: Cytotoxic screening, statements for the whole panel of four cancer cell lines; assay type: cell-based, human; conditions: A-2780, HT-29, MCF-7, HepG2
From the text: (§1) Four cancer cell lines were used in this study viz ovarian (A-2780), colon (HT-29), breast (MCF-7), and liver (HepG2) cancer cells. They were provided by the National Institute of Cancer, Cairo University (Cairo, Egypt). The selection of those cancer cells was encouraged by the stated anticancer activity of a number 5-Fluorouracil hybrids against the mentioned cancer cells and based on the reported cytotoxic activity of a large range of bioactive cores containing sulfonamide moiety.
(§2) Cells were seeded in 96 well plates at a density of 2 × 10^4 and incubated to allow the attachment for 24 h. Then the cells were treated at different concentrations (2.5–10 μM) with 5-FU as a positive control or the synthesized compounds for 48h. 0.1% DMSO was used as a negative control. Afterward, cells were washed using PBS and the viability of cells was evaluated utilizing in vitro toxicology assay kit, MTT Based (Stock No. TOX-1, Sigma-Aldrich, Saint Louis, Missouri, USA), per the manufacturer’s instructions. The plates were read at 570 nm. IC50 was calculated using a sigmoidal dose-response curve (GraphPad Prism version 5 for Windows (GraphPad Inc., USA)). Data are presented as the mean of the three individual experiments. The degree of selectivity of the active target compounds relative to WI38 normal cell lines is expressed as previously described. Selectivity index (SI) = IC50 of a pure compound in a normal cell line/IC50 of the same pure compound in a cancerous cell line.

[2] = test system: MCF-7 (breast) cancer cells; assay: In vitro cytotoxicity assessment (MTT), MCF-7; assay type: cell-based, human; conditions: for IC50: Homo sapiens, MCF7, 48 h, MTT, mean of three experiments ± SD, NA: not active
From the text: as §1, §2

[3] = test system: A-2780 (ovarian) cancer cells; assay: In vitro cytotoxicity assessment (MTT), A-2780; assay type: cell-based, human; conditions: for IC50: Homo sapiens, A2780, 48 h, MTT, mean of three experiments ± SD, NA: not active
From the text: as §1, §2

[4] = test system: HT-29 (colon) cancer cells; assay: In vitro cytotoxicity assessment (MTT), HT-29; assay type: cell-based, human; conditions: for IC50: Homo sapiens, HT-29, 48 h, MTT, mean of three experiments ± SD, NA: not active
From the text: as §1, §2

[5] = test system: HepG2 (liver) cancer cells; assay: In vitro cytotoxicity assessment (MTT), HepG2; assay type: cell-based, human; conditions: for IC50: Homo sapiens, HepG2, 48 h, MTT, mean of three experiments ± SD, NA: not active
From the text: as §1, §2

p21 = assay: Western blot analysis for p21 in MCF-7 cells; assay type: cell-based, human; conditions: 6e at IC50 (1.67 μM), 48 h, relative to actin
Experimental: (§3) Whole-cell protein lysates were prepared according to a standard protocol using RIPA buffer (Cell Signaling, Danvers, MA, USA). Total protein concentrations were determined in the supernatant using the Bradford method. Equal amounts (20 µg) of protein samples were mixed and boiled with SDS Loading buffer for 10 min, allowed to cool on ice and then loaded into SDS-polyacrylamide gel and separated by Cleaver electrophoresis unit (Cleaver, UK), transferred onto polyvinylidene fluoride (PVDF) membranes (BioRad, USA) for 30 min using a Semi-dry Electroblotter (Biorad, USA) at 2.5 A and 25 V for 30 min. Membranes were blocked with 5% non-fat dry milk in TBS-T and incubated overnight with the primary antibody: anti-p21, anti-p27 antibody, or anti-β-actin antibody (1:1000; Cell Signaling Technology, Inc., Danvers, MA, USA), then incubated with secondary HRP-linked antibody (1:5000). Development was done using Pierce ECL2 chemiluminescent and chemifluorescent substrate (Perkin Elmer, Waltham, MA, USA). The chemiluminescent signals were captured using a CCD camera-based imager (Chemi Doc imager, Biorad, USA), and the bands’ intensities were then measured relative to actin by ImageLab (Biorad).

HepG2 cells [6] = assay: Cell cycle analysis (PI flow cytometry), HepG2; assay type: cell-based, human; conditions: IC50 of 6e, 48 h
Experimental: (§4) To evaluate cancer cells distribution through different cell cycle stages, the DNA content of propidium iodide-stained nuclei was assessed by flow cytometry as depicted earlier. […] Then, the cells were washed twice with ice-cold phosphate-buffered saline (PBS) and gathered by centrifugation. The cell pellets were mixed with 75% ethanol (−20 °C). Afterward, cells were stained with the propidium iodide flow cytometry kit (ab139418, Abcam, Cambridge, MA, USA), according to the manufacturer’s instructions. Cell cycle distribution was established by FACS Calibur flow cytometer (BD Biosciences, San Jose, CA, USA). Cell cycle distribution was measured using […] software (Becton Dickinson Immunocytometry Systems, San Jose, CA, USA).

MCF-7 cells [7] = assay: Cell cycle analysis (PI flow cytometry), MCF-7; assay type: cell-based, human; conditions: IC50 of 6e, 48 h
Experimental: as §4

p27 = assay: Western blot analysis for p27 in MCF-7 cells; assay type: cell-based, human; conditions: 6e at IC50 (1.67 μM), 48 h, relative to actin
Experimental: as §3

HT-29 cells [8] = assay: Annexin V-FITC/PI apoptosis assay, HT-29; assay type: cell-based, human; conditions: 6e at its IC50, 48 h
Experimental: (§5) For the apoptosis assay, the BioVision annexin V-FITC apoptosis detection kit (Cat No.: K101; BioVision, Inc., Milpitas, CA, USA) was used, per the manufacturer’s instructions. […] The cells were resuspended in 500 μL of Annexin V–binding buffer, followed by the addition of 5μL of Annexin V–FITC, then incubated in the dark for 10 min at room temperature. Analysis was performed using a FACS Calibur flow cytometer (BD Biosciences, San Jose, CA, USA), using […] software (Becton Dickinson Immunocytometry Systems, San Jose, CA, USA).

CDK2/CyclinA2 = target: T1, CDK2/CyclinA2 (Homo sapiens, UniProt P24941); assay: In vitro inhibitory screening of CDK2 (CDK2 Assay kit, Kinase-Glo MAX); assay type: biochemical; conditions: CDK2/CyclinA2, 30 °C 45 min; mean of three experiments ± SD; read-out: CDK2 Protein Kinase (IC50 in µM)
T1 construct: purchased #79599
Experimental: To measure CDK2/CyclinA2 activity, the CDK2 Assay kit #79599 was used for screening and profiling applications, together with Kinase-Glo® MAX (Promega#V6071) as a detection reagent. […] Briefly, 25 μL of the master mixture containing 6 μL Kinase assay buffer + 1 μL ATP + 5 μL CDK substrate peptide + 13 μL distilled water were added to each well. Later, 5 µL of inhibitor buffer only or diluted compound were added to the blank or test inhibitor wells, respectively. Then, 20μL of Kinase assay buffer was added to blank wells. The reaction was started by the addition of 20 μL of CDK2/CyclinA2 enzyme to the wells of the test inhibitor. The final volume was 50 µL in all of the reactions. Incubation was at 30 °C for 45 min for all the enzymatic reactions. Finally, to each well, 50 μL of Kinase-Glo MAX reagent was added. The plate was incubated for 15 min at room temperature then, the luminescence signal was measured using a Bio Tek Synergy 2 microplate reader. Experiments were performed in triplicates.

A-2780 cells [9] = assay: Cell cycle analysis (PI flow cytometry), A-2780; assay type: cell-based, human; conditions: IC50 of 6e, 48 h
Experimental: as §4

WI38 normal cells = assay: In vitro cytotoxicity assessment (MTT), normal cells; assay type: cell-based; conditions: WI-38; normal human cell line WI38, MTT
Experimental: as §2, with “Then the cells were treated at different concentrations (2.5–10 μM) with 5-FU as a positive control or the synthesized compounds for 48h.” left out

HT-29 cells [10] = assay: Cell cycle analysis (PI flow cytometry), HT-29; assay type: cell-based, human; conditions: IC50 of 6e, 48 h
Experimental: as §4

MCF-7 cells [11] = assay: Annexin V-FITC/PI apoptosis assay, MCF-7; assay type: cell-based, human; conditions: 6e at its IC50, 48 h
Experimental: as §5

A-2780 cells [12] = assay: Annexin V-FITC/PI apoptosis assay, A-2780; assay type: cell-based, human; conditions: 6e at its IC50, 48 h
Experimental: as §5

HepG2 cells [13] = assay: Annexin V-FITC/PI apoptosis assay, HepG2; assay type: cell-based, human; conditions: 6e at its IC50, 48 h
Experimental: as §5

In the case of Cc1[nH]c(=S)[nH]c(=O)c1S(=O)(=O)Cl [Compound 2, 6-Methyl-4-Oxo-2-Thioxo-1,2,3,4-Tetrahydropyrimidine-5-Sulfonyl Chloride], the “anticancer activity against the four cancer cell lines, in words” value (shortened to “anticancer activity”) [1] is reported as “low anticancer activity”, the IC50 [2] is reported as 16.5 ± 1.4 µM and the IC50 [3] is reported as 21.4 ± 2.51 µM. The IC50 [4] was 18 ± 1.04 µM, the IC50 [5] was 17 ± 0.93 µM and the melting point was 324 to 326 °C.

With Cc1[nH]c(=S)[nH]c(=O)c1S(=O)(=O)C1C(=O)CC(C)(C)CC1=O [Compound 4, 5,5-Dimethyl-2-[(6-Methyl-4-Oxo-2-Thioxo-1,2,3,4-Tetrahydropyrimidin-5-Yl)sulfonyl]cyclohexane-1,3-Dione] the “anticancer activity” value [1] was “low or no anticancer activity”, the IC50 [2] was 10.8 ± 1.6 µM and the IC50 [4] was 14.2 ± 2.85 µM. It also gave a melting point of 340 to 342 °C.

In the case of Cc1[nH]c(=S)[nH]c(=O)c1S(=O)(=O)Nc1cccc(Cl)c1Cl [Compound 6e, N-(2,3-Dichlorophenyl)-6-Methyl-4-Oxo-2-Thioxo-1,2,3,4-Tetrahydropyrimidine-5-Sulfonamide], the “protein expression level of p21, increase compared to control” value (p21) is reported as “about 2.6 fold”, the “phase of cell growth arrest” value (HepG2 cells [6]) is reported as “G2/M phase” and the “phase of cell growth arrest” value (MCF-7 cells [7]) is reported as “S phase”. The “protein expression level of p27, increase compared to control” value (p27) was ~2.2 fold, the “% Early Apoptosis” value (HT-29 cells [8]) was 1.61% and the “% Late Apoptosis” value (HT-29 cells [8]) was 26.24%. For the same compound, the “% Necrosis” value (HT-29 cells [8]) was 14.51%, the “% Total” value (HT-29 cells [8]) was 42.36% and the IC50 [2] was 1.67 ± 0.31 µM. The “SI (selectivity index) MCF-7” value ([2]; IC50 in WI38 normal cells / IC50 in MCF-7) was 36.05, the IC50 (CDK2/CyclinA2) was 0.407 ± 0.021 µM and the IC50 [3] was 2.52 ± 0.47 µM. The “SI (selectivity index) A-2780” value ([3]; IC50 in WI38 normal cells / IC50 in A-2780) was 23.91, the IC50 [4] was 1.75 ± 0.4 µM and the “SI (selectivity index) HT-29” value ([4]; IC50 in WI38 normal cells / IC50 in HT-29) was 34.40. For the same compound, the “phase of cell growth arrest” value (A-2780 cells [9]) was “G1/S phase”, the IC50 (WI38 normal cells) was 60.2 ± 1.77 µM and the “phase of cell growth arrest” value (HT-29 cells [10]) was “S phase”. The IC50 [5] was 2.02 ± 0.85 µM, the “SI (selectivity index) HepG2” value ([5]; IC50 in WI38 normal cells / IC50 in HepG2) was 29.80 and the “% Early Apoptosis” value (MCF-7 cells [11]) was 3.82%. The “% Late Apoptosis” value (MCF-7 cells [11]) was 23.71%, the “% Necrosis” value (MCF-7 cells [11]) was 11.75% and the “% Total” value (MCF-7 cells [11]) was 39.28%. For the same compound, the “% Early Apoptosis” value (A-2780 cells [12]) was 2.38%, the “% Late Apoptosis” value (A-2780 cells [12]) was 22.02% and the “% Necrosis” value (A-2780 cells [12]) was 9.41%. The “% Total” value (A-2780 cells [12]) was 33.81%, the “% Early Apoptosis” value (HepG2 cells [13]) was 0.84% and the “% Late Apoptosis” value (HepG2 cells [13]) was 18.97%. The “% Necrosis” value (HepG2 cells [13]) was 8.81%, the “% Total” value (HepG2 cells [13]) was 28.62% and the melting point was 326 to 328 °C.

In the case of Cc1[nH]c(=S)[nH]c(=O)c1S(=O)(=O)C1C(=O)NC(=O)NC1=O [Compound 3, 5-[(6-Methyl-4-Oxo-2-Thioxo-1,2,3,4-Tetrahydropyrimidin-5-Yl)sulfonyl]pyrimidine-2,4,6(1H,3H,5H)-Trione], the “anticancer activity” value [1] is reported as “low or no anticancer activity”, the IC50 [2] is reported as 14.9 ± 2.89 µM and the IC50 [4] is reported as 13 ± 2 µM. For the same compound, the melting point was 344 to 346 °C.

With Cc1[nH]c(=S)[nH]c(=O)c1S(=O)(=O)C1Cc2ccccc2C1=O (stereo not drawn) [Compound 5, 6-Methyl-5-(1-Oxo-2,3-Dihydro-1H-Inden-2-Ylsulfonyl)-2-Thioxo-2,3-Dihydropyrimidin-4(1H)-One] the “anticancer activity” value [1] was “low or no anticancer activity”, the IC50 [2] was 17.3 ± 2.35 µM and the IC50 [4] was 11.7 ± 1.96 µM. The melting point was 348 to 350 °C.
